One assay concerns DHICA polymerase. Nature of the assay: DHICA polymerase assay. The assay is classed as biochemical. The following applies: 0.05 wt %; wheat germ agglutinin eluate; 4 hours; 400 nm. How it is done: A DHICA polymerase assay was performed according to the method disclosed in Chakraborty et al., 1996, Polymerization of 5, 6-dihydroxyindole-2-Carboxylic acid to melanin by the pmell7/silver locus protein, Eur. J. Biochem. 236: 180–188. Specifically, the cell extract (0.5 ml, 150–200 μg protein) was passed through a wheat germ agglutinin column (1 ml bed volume) equilibrated with lysis buffer. The bound material was eluted with 0.5 ml 1M N-acetyl glucosamine, which contains crude DHICA polymerization factor and other melanogenic proteins. A reaction mixture of 0.5 ml containing either the enzyme preparation to be measured (20 μg protein from wheat germ agglutinin eluates) or the appropriate buffer blank, DHICA (0.5 mM), and 100 mM sodium phosphate buffer, pH 7.0. Phenylthiourea was also included to inhibit endogenous tyrosinase activity in the preparation.
Spectrophotomeric reading of the absorbance of the reaction mixture was taken at T=0 and T=4 hours time points at 400 nm. […] An increase in absorbance over that seen in blank tubes was defined as specific DHICA polymerization factor activity.

Assay [1] relates to Reconstituted Human Epidermis (keratinocytes and Type IV melanocytes). In words: Reconstructed Pigmented Epidermal Tissue Assay. The assay is classed as cell-based. The following applies: 0.1 wt %; treated 14 days; absorbance at 490 nm. The method, then: A composition containing 0.1 wt % N, N, S (tris) carboxylmethyl cysteamine was tested in a Reconstructed Pigmented Epidermal Tissue Assay. Reconstituted Human Epidermis (tissue) consisting of keratinocytes and Type IV (Fitzpatrick scale) melanocytes (Skin Ethic, France) were grown in maintenance medium obtained from the tissue supplier. This model consists of melanocytes and keratinocytes and the pigmentation of the skin-equivalent is due to melanin. The tissue remained viable through the course of the experimental treatment and actively synthesized and transferred melanin. The skin equivalents were treated for 14 days with the active materials of the present invention and a measure of melanin was obtained by measuring absorbance of the tissue at 490 nm. All studies were conducted in 6-well tissue culture dishes (Falcon), at 37° C. and 5% CO2. All test articles were dissolved in medium. Tissues were fed 1 ml of medium with the active material or medium alone was used as the control. […] After 14 days the tissues were transferred to a 24-well tissue culture dish (Falcon), and pigmentation was assessed using a Packard microplate reader at 490 nm. […] A control baseline reading had been taken on day 2 after the models had equilibrated and used as a baseline tissue pigmentation value. The baseline reading was subtracted from the final readings to eliminate inherent absorbance by the tissue. […]

The target of the next assay is T1, tyrosinase (Mus musculus, UniProt P11344).
T1 construct: Tyrosinase was assayed spectrophotometrically by adding up to 0.1 ml cell extract; endogenous in cells
T1 sequence (P11344 19-533): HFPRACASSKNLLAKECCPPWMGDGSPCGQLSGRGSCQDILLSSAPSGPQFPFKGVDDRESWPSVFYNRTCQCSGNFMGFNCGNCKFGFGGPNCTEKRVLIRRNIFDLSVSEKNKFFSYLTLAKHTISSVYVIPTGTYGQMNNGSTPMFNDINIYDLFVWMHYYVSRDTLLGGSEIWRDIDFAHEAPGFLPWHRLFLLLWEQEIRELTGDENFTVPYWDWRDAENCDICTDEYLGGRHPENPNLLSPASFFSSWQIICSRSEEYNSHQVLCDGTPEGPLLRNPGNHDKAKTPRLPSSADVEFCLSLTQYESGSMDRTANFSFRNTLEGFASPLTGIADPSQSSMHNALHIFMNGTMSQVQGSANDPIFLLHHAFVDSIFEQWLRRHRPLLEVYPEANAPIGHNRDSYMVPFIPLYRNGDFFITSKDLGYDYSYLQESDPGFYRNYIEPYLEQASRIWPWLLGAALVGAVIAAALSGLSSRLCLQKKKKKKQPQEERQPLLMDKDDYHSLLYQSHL
Nature of the assay: Tyrosinase assay. The assay is classed as biochemical. As to conditions: 0.05 wt %; mouse melanoma cell extract; DOPA substrate; 475 nm. The method, then: A tyrosinase assay was performed according to the method outlined in Chakraborty et al., 1989, Melanogenic regulatory factors in coated vesicles from melanoma cells, J. Invest. Dermatol. 93: 616–620. Specifically, mouse melanoma cells were dissolved with the addition of 0.1 M sodium phosphate buffer, pH 6.8, containing Triton X-100 (1% vol/vol), at a ratio of 1-5×10^6 cells/ml. After 10 minutes on ice, the extracts were centrifuged at 4° C. (10,000 g, for 10 minutes) and the supernatant fractions were assayed for tyrosinase. Tyrosinase was assayed spectrophotometrically by adding up to 0.1 ml cell extract to 0.2 ml of a solution of freshly prepared DOPA (˜0.5 mg/ml), in a total volume of 0.5 ml of 0.1 M sodium phosphate buffer, pH 6.8. Reactions were carried out at 37° C. in plastic cuvettes, and the appearance of absorption at 475 nm was followed.

A further assay addresses T2, DOPAchrome tautomerase (Mus musculus, UniProt P29812).
T2 construct: DCT was assayed spectrophotometrically by adding up to 0.1 ml cell extract; endogenous in cells
In words: DOPAchrome tautomerase (DCT) assay. The assay is classed as biochemical. As to conditions: 0.05 wt %; cell extract; phenylthiourea 1 mM; 475 nm. How it is done: DOPAchrome tautomerase (DCT) activity was assayed according to the method disclosed in Chakraborty et al., 1998, Effect of arbutin on melanogenic proteins in human melanocytes, Pigment Cell Res. 11: 206–212. Specifically, ice-cold DOPA (0.5 mg per ml of 0.1 M sodium phosphate buffer, pH 6.8) was mixed with Ag2O (30 mg Ag2O: 1 mg DOPA) for about 1 minute and filtered through a 0.22 μm Millipore filter. DCT was assayed spectrophotometrically by adding up to 0.1 ml cell extract to 0.5 ml of a solution of freshly prepared DOPAchrome (˜0.5 mg/ml). Reactions were carried out at room temperature in plastic cuvettes, and the disappearance of absorption at 475 nm was followed. Phenylthiourea (1 mM) was added to the reaction mixture, because the presence of tyrosinase in the cell extract can interfere with the assay. The percentage conversion of DOPAchrome was calculated per mg of protein extract and normalized against the control.

T2 sequence (P29812 24-517): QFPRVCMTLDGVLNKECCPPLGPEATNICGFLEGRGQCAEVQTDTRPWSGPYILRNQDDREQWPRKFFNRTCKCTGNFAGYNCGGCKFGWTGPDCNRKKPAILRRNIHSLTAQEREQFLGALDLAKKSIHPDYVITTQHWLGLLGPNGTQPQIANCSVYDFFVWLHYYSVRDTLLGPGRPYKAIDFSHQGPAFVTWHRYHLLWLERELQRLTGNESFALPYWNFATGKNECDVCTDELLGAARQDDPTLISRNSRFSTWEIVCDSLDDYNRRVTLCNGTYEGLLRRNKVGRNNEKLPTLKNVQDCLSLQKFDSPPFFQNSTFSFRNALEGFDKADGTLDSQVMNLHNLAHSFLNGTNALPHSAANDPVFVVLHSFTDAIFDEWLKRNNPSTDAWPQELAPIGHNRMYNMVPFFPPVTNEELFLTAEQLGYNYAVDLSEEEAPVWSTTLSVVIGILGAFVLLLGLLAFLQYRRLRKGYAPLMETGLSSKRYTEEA

On to `O=C(O)CSCCN(CC(=O)O)CC(=O)O` [N, N, S (tris) carboxylmethyl cysteamine], for which, in the assay on DHICA polymerase, the “average decrease in DHICA Polymerase conversion compared to the control” value was found to be 58%. In addition, the “reduction of reconstructed epidermal tissue pigmentation in comparison to control tissue” value in assay [1] is recorded as “about 40%”. In addition, the “average decrease in tyrosinase conversion as compared to the control” value on tyrosinase worked out at 36%. Further, at DOPAchrome tautomerase, the “average decrease in DOPAchrome conversion as compared to the control” value was found to be 65%.

Source of the values: patent US7014844B2, “Lightening compositions and methods of use” (Avon Products, Inc., priority 2001, dated 2006).
